Assay in all cases: CellTiter-Glo cell viability, IC50 determination
Common to all, as to assay type: cell-based

One assay relates to BT474. The conditions noted are these: Homo sapiens, BT-474, 72 h; BT474 cell line; 3-day CTG assay; read-out: Absolute IC50. The essentials: (§1)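 Cells were seeded at 4×10^3 cells/well in medium with 10% FBS, left overnight at 37 °C and 5% CO2, then treated in triplicate on Day 0. On Day 3, viability was read by CellTiter-Glo luminescence. Absolute IC50 is where a sigmoidal nonlinear fit crosses 50% surviving rate.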

A further assay concerns NCI-H1703. The note with it: Homo sapiens, 72 h; NCI-H1703 cell line; 3-day CTG assay; read-out: Absolute IC50. Put shortly: as §1
The next assay relates to Colo205. The note with it: Homo sapiens, COLO 205, 72 h; Colo205 cell line; 3-day CTG assay; read-out: Absolute IC50. Put shortly:
as §1

Another assay deals with HepG2. The conditions noted are these: Homo sapiens, 72 h; HepG2 cell line; 3-day CTG assay; read-out: Absolute IC50. Put shortly: as §1
Another assay relates to PC-3. The conditions noted are these: Homo sapiens, 72 h; PC-3 cell line; 3-day CTG assay; read-out: Absolute IC50. The essentials: as §1

For the compound `CC(=O)Nc1cccc(-n2c(=O)n(C3CC3)c(=O)c3c(Nc4ccc(I)cc4F)n(C)c(=O)c(C)c32)c1` [Trametinib, N-(3-{3-Cyclopropyl-5-[(2-fluoro-4-iodophenyl)amino]-6,8-dimethyl-2,4,7-trioxo-3,4,6,7-tetrahydropyrido[4,3-d]pyrimidin-1(2H)-yl}phenyl)acetamide], the half-maximal inhibitory concentration (IC50) is 39 µM with BT474 and 15 µM with NCI-H1703.

As to `O=C(Nc1ccc2[nH]nc(-c3ccncc3)c2c1)[C@@H]1CCN(CC(=O)N2CCN(c3ccc(-c4ncccn4)cc3)CC2)C1` [SCH772984, (R)-1-(2-oxo-2-(4-(4-(pyrimidin-2-yl)phenyl)piperazin-1-yl)ethyl)-N-(3-(pyridin-4-yl)-1H-indazol-5-yl)pyrrolidine-3-carboxamide], the half-inhibitory concentration (IC50) came out at 0.04 µM with Colo205, 0.13 µM in the assay with HepG2 and 14.3 µM in the assay with PC-3.
